Assay results: patent US20230103007A1, “COMBINATION THERAPY FOR TREATING ABNORMAL CELL GROWTH” (priority 2020, published 2023)

Assays:
[1] = system: H2122 KRAS G12C mt NSCLC xenograft; assay: Xenograft efficacy study, H2122; format: in vivo, Balb/c nude mice; conditions: for effect on AMG-510 efficacy (change in tumor volume): in combination with AMG-510, H2122 tumor bearing mice, 10 days; for mice with tumor regression, combination with sotorasib: in combination with sotorasib, 10 days of treatment; for augmentation of tumor growth inhibition by sotorasib: 0.3 mg/kg QD in combination with sotorasib 30 mg/kg QD
Experimental: (§1) KRAS G12C mutant NSCLC H2122 and H358 tumor cells and Balb/c nude mice were used. Tumor challenge was initiated by subcutaneous inoculation of 1×10^7 tumor cell suspensions into the right flank of recipient mice. Tumor sizes (mm^3) and body weights were measured 3 times per week for the duration of the study. At the time of routine monitoring, the animals were checked for any effects of tumor growth and treatments on normal behavior such as mobility, food and water consumption (by looking only), and body weight gain/loss, eye/hair matting and any other abnormal effect.
(§2) For efficacy studies, once tumors reached an average volume of 150-200 mm^3, mice were sorted into 10 groups (n=10): vehicle 1 (5% DMSO, 10% HPCD in sterile water)+vehicle 2 (2% HPMC, 1% Tween 80 in sterile water), VS-6766 in vehicle 1 (0.3 mg/kg PO QD, 28 days)+vehicle 2, AMG-510 in vehicle 2 (30 mg/kg PO QD, 28 days)+vehicle 1, VS-6766+AMG-510, VS-4718 (0.5% CMC-Na, 0.1% Tween 80 in sterile water) (50 mg/kg PO BID, 28 days)+vehicle 2, VS-4718+VS-6766, VS-4718+AMG-510, VS-4718+AMG-510+VS-6766, trametinib (0.3 mg/kg PO QD, 28 days) (0.5% hydroxypropylmethylcellulose and 0.2% Tween-80 in distilled water (pH 8.0))+vehicle 2, and trametinib+AMG-510. Mice were euthanized when tumor volumes>2,000 mm^3.

[2] = system: H358 KRAS G12C mt NSCLC xenograft; assay: Xenograft efficacy study, H358; format: in vivo, Balb/c nude mice; conditions: in combination with G12Ci (AMG-510); 21 days
Experimental: as §1, §2

[3] = system: pMEK and pERK in H2122 KRAS G12C NSCLC xenograft tumors; assay: Pharmacodynamic study in H2122 xenograft tumors (pMEK, pERK western blot); format: in vivo, Balb/c nude mice; conditions: VS-6766 0.3 mg/kg + AMG-510 30 mg/kg, oral, daily for 5 days; tumors harvested 2, 8 and 24 hours after final dose
Experimental: as §1

[4] = system: RAS pathway signaling (pMEK, pERK, p-p90RSK); assay: Western blot of RAS pathway signaling in KRAS G12C mt NSCLC cell lines; format: cell-based
Experimental: KRAS G12C mutant NSCLC cells (H2122, H358, H1373 and SW1573) were seeded in 10-cm dishes. After an incubate overnight (17-22hrs) cells were treated with 100 nM VS-6766 +/−100 nM G12C inhibitor. 4 and 48 hours post compound treatment, cells were collected, and cell lysates prepared using RIPA buffer containing protease inhibitors. Western blot assays were run using antibodies for pMEK, MEK, pERK, ERK, p-p90RSK, p90RSK and actin.

[5] = system: KRAS G12C mt NSCLC and colorectal cancer cell lines (H2122, H358, H2030, H1373, SW837, SW1463); assay: 3D proliferation assay in vitro (CellTiter-Glo 3D, synergy analysis); format: cell-based; conditions: 7 days treatment, panel of KRAS G12C mt NSCLC and CRC cell lines, Loewe model
Experimental: KRAS G12C mutant NSCLC (H2122, H358, H2030, H1373) and colorectal cancer (CRC; SW837 and SW1463) were used. Briefly, 96-well plates were coated with 50 μL of Matrigel (100%) and incubated at 37° C. and 5% CO2 for 30 min in order for the Matrigel to solidify. Cells were seeded in 100 μL of 2% Matrigel containing medium. After an incubate overnight (17-22 hours) cells were treated with VS-6766 +/−G12C inhibitor +/−Defactinib for 7 days. Cell viability was measured using the cell viability CellTiter-Glo 3D assay. Combination effects were evaluated by comparing the averaged viability/inhibition to two different null reference models derived from the single agent activities. Bliss, Loewe and Highest Single Agent synergy analysis were performed to determine synergy scores.

[6] = 100 nM VS-6766 + 100 nM AMG-510, 4 and 48 hours
[7] = 100 nM VS-6766 + 100 nM MRTX849, 4 and 48 hours

Row | SMILES | effect on AMG-510 efficacy (change in tumor volume) [1] | mice with tumor regression, combination with sotorasib [1] | effect on efficacy of G12Ci in H358 xenograft model [2] | augmentation of tumor growth inhibition by sotorasib [1] | mice with tumor reductions of >35%, triple combination ([1]; triple combination of VS-6766, sotorasib and a FAK inhibitor) | inhibition of pMEK and pERK in tumors, combination with sotorasib relative to sotorasib alone [3] | depth and duration of inhibition of MEK/ERK signaling, added to AMG-510, relative to G12C inhibitor alone [4, 6] | pERK inhibition by combination with AMG-510 versus AMG-510 alone [4, 6] | depth and duration of inhibition of MEK/ERK signaling, added to MRTX849, relative to G12C inhibitor alone [4, 7] | pERK inhibition by combination with MRTX849 versus MRTX849 alone [4, 7] | suppression of RAS pathway signaling (pMEK, pERK, p-p90RSK) as a single agent ([4]; single agent, 100 nM, 4 and 48 hours, KRAS-G12C NSCLC cell lines) | synergy in reducing viability, combination with adagrasib [5] | synergy in reducing viability, combination with sotorasib [5]
1 | CNC(=O)c1ccccc1Nc1cc(Nc2ccc(N3CCOCC3)cc2OC)ncc1C(F)(F)F [FAK inhibitor] | potentiate | 4/10 | enhance |  |  |  |  |  |  |  |  |  | 
2 | CNS(=O)(=O)Nc1nccc(Cc2c(C)c3ccc(Oc4ncccn4)cc3oc2=O)c1F [VS-6766] | potentiate | 5/10 | enhance | augmented | 10/10 | improved inhibition | increases depth and duration of inhibition | better | increases depth and duration of inhibition | better | effectively suppressed | synergistic | synergistic
3 | CNC(=O)c1ccc(Nc2ncc(C(F)(F)F)c(NCc3nccnc3N(C)S(C)(=O)=O)n2)cc1 [defactinib] |  |  |  |  |  |  |  |  |  |  |  | synergistic | synergistic
4 | CC(=O)Nc1cccc(-n2c(=O)n(C3CC3)c(=O)c3c(Nc4ccc(I)cc4F)n(C)c(=O)c(C)c32)c1 [trametinib, reference compound] |  | 1/10 |  | much less effective |  |  |  |  |  |  |  |  | 
